Reference: US6653300B2, “Pyrazole compounds useful as protein kinase inhibitors” (Vertex Pharmaceuticals Incorporated, priority 2000, dated 2003)
Read-outs that look alike come from different tables or passages of the source.

How the values were obtained:
GSK-3β (AA 1-420) = target: T1, GSK-3β (AA 1-420) (Homo sapiens, UniProt P49841); experiment: Ki determination for the inhibition of GSK-3 (coupled enzyme system); type: biochemical; conditions: 20 μM ATP, 20 nM GSK-3β, 30° C.
T1 construct: GSK-3β (AA 1-420)
Method in brief: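 GSK-3β (AA 1-420, 20 nM) was run in a pyruvate kinase/LDH-coupled NADH assay in 100 mM HEPES pH 7.5, 10 mM MgCl2, 25 mM NaCl, 1 mM DTT, 1.5% DMSO, with 300 μM phosphopeptide substrate. Compound (0.002–30 μM) was preincubated 10 min at 30° C, then 20 μM ATP was added.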

human Src kinase = target: T2, human Src kinase (Homo sapiens, UniProt P12931); experiment: SRC inhibition assay (radioactivity-based or spectrophotometric assay); type: biochemical; conditions: recombinant human Src kinase, assay A or B
T2 construct: full length recombinant human Src kinase (from Upstate Biotechnology, cat. no. 14-117); purchased Upstate Biotechnology 14-117; host or cells: baculo viral cells
Description: The compounds were evaluated as inhibitors of human Src kinase using either a radioactivity-based assay or spectrophotometric assay. The compounds were assayed as inhibitors of full length recombinant human Src kinase (from Upstate Biotechnology, cat. no. 14-117) expressed and purified from baculo viral cells. […] P-0275). […] In a typical assay, all the reaction components with the exception of ATP were pre-mixed and aliquoted into assay plate wells. […] The assay plate was incubated at 30° C. for 10 min before initiating the reaction with ^33P-ATP. After 20 min of reaction, the reactions were quenched with 150 μl of 10% trichloroacetic acid (TCA) containing 20 mM Na3PO4. The quenched samples were then transferred to a 96-well filter plate (Whatman, UNI-Filter GF/F Glass Fiber Filter, cat no. 7700-3310) installed on a filter plate vacuum manifold. Filter plates were washed four times with 10% TCA containing 20 mM Na3PO4 and then 4 times with methanol. 200 μl of scintillation fluid was then added to each well. The plates were sealed and the amount of radioactivity associated with the filters was quantified on a TopCount scintillation counter. The radioactivity incorporated was plotted as a function of the inhibitor concentration. The data was fitted to a competitive inhibition kinetics model to get the Ki for the compound. The ADP produced from ATP by the human recombinant Src kinase-catalyzed phosphorylation of poly Glu-Tyr substrate was quanitified using a coupled enzyme assay (Fox et al (1998) Protein Sci 7, 2249). In this assay one molecule of NADH is oxidised to NAD for every molecule of ADP produced in the kinase reaction. The disappearance of NADH can be conveniently followed at 340 nm. […] In a typical assay, all the reaction components with the exception of ATP were pre-mixed and aliquoted into assay plate wells. […] The absorbance change at 340 nm with time, the rate of the reaction, was monitored on a molecular devices plate reader. The data of rate as a function of the inhibitor concentration was fitted to competitive inhibition kinetics model to get the Ki for the compound.

Aurora-2 = target: T3, Aurora-2 (Homo sapiens, UniProt O14965); experiment: Ki determination for the inhibition of Aurora-2 (coupled enzyme assay); type: biochemical; conditions: 70 nM Aurora-2, 30° C.
T3 sequence (O14965 1-403): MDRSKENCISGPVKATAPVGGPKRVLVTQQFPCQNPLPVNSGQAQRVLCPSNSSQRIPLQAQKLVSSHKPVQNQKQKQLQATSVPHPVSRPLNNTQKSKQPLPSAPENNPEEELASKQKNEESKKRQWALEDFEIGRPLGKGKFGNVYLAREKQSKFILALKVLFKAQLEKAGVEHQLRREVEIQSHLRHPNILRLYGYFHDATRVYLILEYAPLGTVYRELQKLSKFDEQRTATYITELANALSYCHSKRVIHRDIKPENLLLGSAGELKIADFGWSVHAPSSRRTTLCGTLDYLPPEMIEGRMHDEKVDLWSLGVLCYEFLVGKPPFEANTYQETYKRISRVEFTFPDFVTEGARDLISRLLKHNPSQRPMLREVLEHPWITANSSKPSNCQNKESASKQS
Method in brief: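 Ki came from reaction rates plotted against inhibitor concentration, with rates taken as A340 decrease over 5 min at 30° C. Enzyme (70 nM final) was added after 10 min compound preincubation; stock buffer held […], 800 μM LRRASLG, PK/LDH coupling, pH 7.5.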

T1 sequence (P49841 whole entry, the tested form may be a part): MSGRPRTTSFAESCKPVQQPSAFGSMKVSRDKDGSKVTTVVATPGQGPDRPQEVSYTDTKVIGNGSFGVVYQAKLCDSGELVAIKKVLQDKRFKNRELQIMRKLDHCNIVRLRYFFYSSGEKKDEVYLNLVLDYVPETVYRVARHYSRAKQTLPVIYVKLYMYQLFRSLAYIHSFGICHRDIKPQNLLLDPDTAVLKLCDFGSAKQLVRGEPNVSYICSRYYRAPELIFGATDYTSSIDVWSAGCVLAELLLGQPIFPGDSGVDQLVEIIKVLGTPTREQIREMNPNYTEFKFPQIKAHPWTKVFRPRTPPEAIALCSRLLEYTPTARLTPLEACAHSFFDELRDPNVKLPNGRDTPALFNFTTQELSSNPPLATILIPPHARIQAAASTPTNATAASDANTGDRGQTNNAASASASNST
T2 sequence (P12931 whole entry): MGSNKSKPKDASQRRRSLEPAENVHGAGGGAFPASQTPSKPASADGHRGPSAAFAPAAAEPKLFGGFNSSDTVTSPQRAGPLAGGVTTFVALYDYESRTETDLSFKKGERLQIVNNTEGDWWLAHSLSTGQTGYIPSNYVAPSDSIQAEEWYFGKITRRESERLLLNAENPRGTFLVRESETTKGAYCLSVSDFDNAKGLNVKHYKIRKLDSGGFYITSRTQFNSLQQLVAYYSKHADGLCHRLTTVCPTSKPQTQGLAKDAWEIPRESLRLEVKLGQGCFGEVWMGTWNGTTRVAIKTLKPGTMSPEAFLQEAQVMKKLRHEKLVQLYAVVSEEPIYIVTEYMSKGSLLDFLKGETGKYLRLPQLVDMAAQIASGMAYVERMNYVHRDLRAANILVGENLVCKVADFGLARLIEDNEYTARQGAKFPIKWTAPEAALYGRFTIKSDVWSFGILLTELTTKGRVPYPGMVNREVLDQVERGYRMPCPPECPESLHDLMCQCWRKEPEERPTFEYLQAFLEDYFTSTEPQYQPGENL

Compound | melting point | Ki (GSK-3β (AA 1-420)) | Ki (human Src kinase; read-out: Ki value on SRC) | Ki (human Src kinase; read-out: Ki value for SRC) | Ki (Aurora-2)
c1ccc(-c2cc(Nc3cc(C4CC4)[nH]n3)nc(Sc3ccc4ccccc4c3)n2)cc1 [IIIa-1, (5-Cyclopropyl-2H-pyrazol-3-yl)-[2-(naphtalen-2-ylsulfanyl)-6-phenylpyrimidin-4-yl]-amine] | 233 to 234 °C | 0.1 to 1 µM | < 0.1 µM |  | 
Cc1cc(Nc2cc(-c3ccccc3)nc(Sc3ccc(NC(=O)C(C)C)cc3)n2)n[nH]1 [IIIa-13, [2-(4-Isobutyrylylamino-phenylsulfanyl)-6-phenylpyrimidin-4-yl]-(5-methyl-2H-pyrazol-3-yl)-amine] | 201 to 202 °C |  |  | 1 to 6 µM | 
CC(=O)Nc1ccc(Sc2nc(Nc3cc(C)[nH]n3)c(C)c(-c3ccccc3)n2)cc1 [IIIa-21, [2-(4-Acetamido-phenyl-sulfanyl)-5-methyl-6-phenyl-pyrimidin-4-yl]-(5-methyl-2H-pyrazol-3-yl)-amine] | 276 to 277 °C | 1 to 7 µM |  | 1 to 6 µM | 
Cc1cc(Nc2cc(-c3ccccc3)nc(Sc3ccc(NC(=O)CN(C)C)cc3)n2)n[nH]1 [IIIa-25, {2-[4-(2-Dimethylamino-acetylamino)-phenylsulfanyl]-6-phenyl-pyrimidin-4-yl}-(5-methyl-2H-pyrazol-3-yl)-amine] | 213 to 215 °C |  |  | 1 to 6 µM | 
Cc1cc(Nc2cc(N3CCCCC3)nc(SCc3cccc(Cl)c3)n2)n[nH]1 [IIIa-34, [2-(3-Chloro-benzylsulfanyl)-6-(piperidin-1-yl)-pyrimidin-4-yl]-(5-methyl-2H-pyrazol-3-yl)-amine] | 234 to 235 °C | 0.1 to 1 µM |  | 1 to 6 µM | 
COCCNc1cc(Nc2cc(C)[nH]n2)nc(SCc2ccc(S(=O)(=O)N3CCOCC3)cc2)n1 [IIIa-36, {6-(2-Methoxy-ethylamino)-2-[4-(morpholinesulfonyl)-benzylsulfanyl]-pyrimidin-4-yl}-(5-methyl-2H-pyrazol-3-yl)-amine] | 193 to 195 °C | 1 to 7 µM |  | 1 to 6 µM | 
Cc1cc(Nc2cc(N3CCN(C)CC3)nc(SCc3ccc(S(=O)(=O)N4CCOCC4)cc3)n2)n[nH]1 [IIIa-37, {6-(4-methylpiperazin-1-yl)-2-[4-(morpholinesulfonyl)-benzylsulfanyl]-pyrimidin-4-yl}-(5-methyl-2H-pyrazol-3-yl)-amine] | 206 to 207 °C | 0.1 to 1 µM |  | 1 to 6 µM | 
CC(=O)Nc1ccc(Sc2nc(Nc3cc(C)n[nH]3)cc(N3CCOCC3)n2)cc1 [IIIa-44, [2-(4-Acetamidophenylsulfanyl)-6-(morpholin-4-yl)-pyrimidin-4-yl]-(5-methyl-2H-pyrazol-3-yl)-amine] |  |  |  | 1 to 6 µM | 
Cc1cc(Nc2nc(Sc3ccccc3N)nc3ccccc23)n[nH]1 [IIa-20, [2-(2-Aminophenylsulfanyl)-quinazolin-4-yl]-(5-methyl-2H-pyrazol-3-yl)-amine] |  | 0.1 to 1 µM |  | 1 to 6 µM | 0.1 to 1 µM
c1ccc2c(c1)CC(Nc1nc(Nc3cc(C4CC4)[nH]n3)c3ccccc3n1)C2 [IIc-49, (5-Cyclopropyl-2H-pyrazol-3-yl)-[2-(indan-2-ylamino)-quinazolin-4-yl]-amine] | 233 to 234 °C | 0.1 to 1 µM |  |  | < 0.1 µM
Cc1cccc(Nc2nc(Nc3cc(C)[nH]n3)c3ccccc3n2)c1 [IIc-50, [2-(3-Methylphenylamino)-quinazolin-4-yl]-(5-methyl-2H-pyrazol-3-yl)-amine] | 240 to 242 °C | 0.1 to 1 µM |  |  | < 0.1 µM
c1ccc2c(Nc3cc(C4CC4)[nH]n3)nc(Nc3ccc(N4CCOCC4)cc3)nc2c1 [IIc-52, (5-Cyclopropyl-2H-pyrazol-3-yl)-{2-[4-(morpholin-1-yl)phenylamino]-quinazolin-4-yl}-amine] | 275 to 276 °C | 0.1 to 1 µM |  |  | < 0.1 µM
Cc1cc(Nc2nc(Nc3ccc(C)c(C)c3)nc3ccccc23)n[nH]1 [IIc-54, [2-(3,4-Dimethylphenylamino)-quinazolin-4-yl]-(5-methyl-2H-pyrazol-3-yl)-amine] | 249 to 251 °C | 0.1 to 1 µM |  |  | < 0.1 µM
Cc1cc(Nc2nc(Nc3ccc(NC(=O)OC(C)(C)C)cc3)nc3ccccc23)n[nH]1 [IIc-60, [2-(4-tert-Butoxycarbonylamino-phenylamino)-quinazolin-4-yl]-(5-methyl-2H-pyrazol-3-yl)-amine] | 238 to 242 °C | 1 to 7 µM |  |  | < 0.1 µM

Second part, the compound after the results:

melting point | Ki (GSK-3β (AA 1-420)) | Ki (human Src kinase; read-out: Ki value on SRC) | Ki (human Src kinase; read-out: Ki value for SRC) | Ki (Aurora-2) | Compound
238 to 239 °C | 0.1 to 1 µM |  |  | < 0.1 µM | CCc1cccc(Nc2nc(Nc3cc(C)[nH]n3)c3ccccc3n2)c1 [IIc-55, [2-(3-Ethylphenylamino)-quinazolin-4-yl]-(5-methyl-2H-pyrazol-3-yl)-amine]
294 to 296 °C | 0.1 to 1 µM |  |  | < 0.1 µM | CC(=O)Nc1ccc(Nc2nc(Nc3cc(C)[nH]n3)c3ccccc3n2)cc1C#N [IIc-57, [2-(4-Acetamido-3-cyanophenylamino)-quinazolin-4-yl]-(5-methyl-2H-pyrazol-3-yl)-amine]
253 to 256 °C | 0.1 to 1 µM |  |  | < 0.1 µM | CC(=O)Nc1ccc(Nc2nc(Nc3cc(C)[nH]n3)c3ccccc3n2)cc1 [IIc-59, [2-(4-Acetamidophenylamino)-quinazolin-4-yl]-(5-methyl-2H-pyrazol-3-yl)-amine]
293 to 298 °C | < 0.1 µM |  |  | < 0.1 µM | Cc1cc(Nc2nc(Nc3ccc(C#N)cc3)nc3ccccc23)n[nH]1 [IIc-61, [2-(4-Cyanophenylamino)-quinazolin-4-yl]-(5-methyl-2H-pyrazol-3-yl)-amine]
206 to 207 °C | 0.1 to 1 µM |  |  | < 0.1 µM | Cc1cc(Nc2nc(Nc3cccc(-c4ccccc4)c3)nc3ccccc23)n[nH]1 [IIc-63, [2-(Biphenyl-3-ylamino)-quinazolin-4-yl]-(5-methyl-2H-pyrazol-3-yl)-amine]
245 to 246 °C | 0.1 to 1 µM |  |  | < 0.1 µM | COC(=O)Cc1ccc(Nc2nc(Nc3cc(C)[nH]n3)c3ccccc3n2)cc1C [IIc-64, [2-(4-Methoxycarbonylmethyl-3-methylphenylamino)-quinazolin-4-yl]-(5-methyl-2H-pyrazol-3-yl)-amine]
245 °C (dec.) | 0.1 to 1 µM |  |  | < 0.1 µM | Cc1cc(Nc2nc(Nc3ccc(CC(=O)O)c(C)c3)nc3ccccc23)n[nH]1 [IIc-65, [2-(4-Carboxymethyl-3-methylphenylamino)-quinazolin-4-yl]-(5-methyl-2H-pyrazol-3-yl)-amine]
290 to 293 °C | < 0.1 µM |  |  | < 0.1 µM | Cc1cc(Nc2nc(Nc3ccc(Br)cc3)nc3ccccc23)n[nH]1 [IIc-67, [2-(4-Bromophenylamino)-quinazolin-4-yl]-(5-methyl-2H-pyrazol-3-yl)-amine]
248 to 252 °C | 1 to 7 µM |  |  | < 0.1 µM | CCc1cc(Nc2nc(Nc3cc(CC)[nH]n3)c3ccccc3n2)n[nH]1 [IIc-69, (5-Ethyl-2H-pyrazol-3-yl)-[2-(5-ethyl-2H-pyrazol-3-ylamino)-quinazolin-4-yl]-amine]
219 to 221 °C | 1 to 7 µM |  |  | < 0.1 µM | c1ccc(Cc2nc(Nc3cc(C4CC4)[nH]n3)c3ccccc3n2)cc1 [IId-3, (2-Benzyl-quinazolin-4-yl)-(5-cyclopropyl-2H-pyrazol-3-yl)-amine]
